Source: patent US20220409617A1, “Drug Formulations and Methods of Treatment for Metabolic Disorders” (The Regents of the University of California, priority 2019, published 2022)
Entries after “also recorded” stand apart in the source; their conditions may differ.

Columns and labels:
[1] = system: mouse embryonic fibroblasts (MEFs); format: cell-based; settings: 3 h pre-treatment then palmitate 250 μM 3 h, 893 5 μM, myriocin 10 μM, fumonisin B1 30 μM, NAV-2729 12.5 μM, YM201636 800 nM, celastrol 500 nM
Procedure: Mitochondrial morphology was assessed by examining citrate synthesis expression under a high resolution microscopy. Specifically, the aspect ratio, branch length and roundness of mitochondria was assessed (FIG. 1).
LSL-KrasG12D mouse embryonic fibroblasts (MEFs) with and without Cre-mediated deletion of the STOP cassette were obtained from David Tuveson (Cold Spring Harbor Laboratory, Cold Spring Harbor N.Y., USA) in 2000. p53^flox/flox MEFs were derived in house (2015) from C57BL/6 mice using standard techniques and immortalized by transient expression of Cre recombinase and deletion of p53. MEFs were cultured and maintained in DMEM with 10% FBS and 1% penicillin-streptomycin. […] Stock solution of palmitic acid (ACROS Organics, cat # AC129702500) was prepared at 100 mM in ethanol. Palmitate (250 μM) was conjugated to 1% (w/v) fatty-acid free bovine serum albumin (Sigma, A8806) in DMEM at 37° C. for 20 min. For all immunofluorescence assays, 8,000 MEFs were seeded into 8-chamber slides (Cellvis, cat # C8-1.5H-N) 12-16 h before treatment. Cells were pre-treated with sphingolipid-like compound 893 (5 μM in water), myriocin (10 μM in methanol), fumonisin-B1 (30 μM in DMSO), or celastrol (500 nM in DMSO) for 3 h followed by a 3 h treatment with BSA-conjugated palmitate mixture or BSA alone.

[2] = Indirect calorimetry and food intake in metabolic cages; format: in vivo, mouse
Procedure: To examine the effects of sphingolipid-like compound 893 on whole body metabolism, indirect calorimetry was performed. Male C57BL/6J mice were maintained on the SD or HFD for 10-12 weeks, acclimated to metabolic cages that mimic the home environment, and then treated with vehicle or 120 mg/kg sphingolipid-like compound 893 by gavage at ZT8.5. […] As expected, RER values were lower during both light and dark cycles and diurnal fluctuations in substrate utilization were blunted in HFD-fed mice relative to SD controls (FIGS. 29 & 30). […] Consistent with the pharmacokinetic properties of sphingolipid-like compound 893 (see FIG. 12), RER returned to control values 24 h after sphingolipid-like compound 893 treatment (FIGS. 28 & 29). Animals were similarly responsive to a second treatment with sphingolipid-like compound 893 given 48 h after the first.
Metabolic parameters were measured using the Phenomaster system (TSE Systems Inc., Chesterfield, Mo.). The climate chamber was set to 21° C. and 50% humidity with a 12:12 h light-dark cycle. Mice were singly housed inside the chamber and acclimated for 48 h prior to data collection. VO2, VCO2, and food intake was measured every 27 min. Respiratory exchange ratio (RER) was calculated using the formula RER=VCO2/VO2. Energy expenditure was calculated using the equation EE=1.44(3.941×VO2+1.106×VCO2). In the indirect calorimetry studies in FIGS. 12 to 14, C57BL/6J mice were maintained on the HFD or SD for 10-12 weeks prior to evaluation and were naïve to therapy. Mice were serially evaluated in cohorts of 4 vehicle- and 4 sphingolipid-like compound 893-treated mice using 8 metabolic cages. Treatment was by gavage at ZT8.5, sphingolipid-like compound 893 was administered at 120 mg/kg in water. To evaluate the effect of morning treatment, vehicle or 120 mg/kg sphingolipid-like compound 893 was administered at ZT2 to 18 week old C57BL/6J males on a standard diet. Liquid diet experiments were also performed on 18 week old C57BL/6J males; mice were treated with sphingolipid-like compound 893 at ZT8.5 and food access was restricted at ZT11. Liquid feed (AIN-76, BioServ, Flemington, N.J.) was prepared at 1000 kcal/L in milli-Q water and at ZT12, mice were gavaged with 400 μL (0.4 kcal) of diet, corresponding to approximately 3 h of ad libitum consumption of standard chow. For the pair feeding study, RER was monitored over 12 h in mice maintained on the HFD for 22 weeks (31 weeks of age); pair-fed mice were used after a 48 h wash-out period and provided with the average amount of food they ate over 24 h after sphingolipid-like compound 893 treatment (92.5 mg or 0.4 kcal).
During measurements of one SD cohort (4 vehicle- and 4 sphingolipid-like compound 893-treated mice), a leak in the reference CO2 system was detected, the O2 and CO2 data was censored until the leak was corrected (70-74 h). Feeding and activity measurements were not compromised and were still analyzed. Occasionally, uneaten food was found on the floor of the cage precluding use of the hopper sensor to accurately monitor food intake. In these instances, food intake data was censored for the prior 24 h period (days 2 and 3 for mouse 8 (SD+sphingolipid-like compound 893) and mouse 8 (SD+vehicle), and day 3 for mouse 8 (HFD+sphingolipid-like compound 893) and mouse 1 (HFD+vehicle)). […] In rare cases, inadvertent pharyngeal administration of gavage material occurred. These mice were not euthanized, but food intake, calorimetry, and activity data from these animals was excluded from the analysis for 1 week after this event (mouse 2 (HFD+sphingolipid-like compound 893) after the second treatment on day 3 and mouse 5 (HFD+sphingolipid-like compound 893) after the first dose on day 1).

ob/ob mice = assay: Leptin-deficient ob/ob mice: food intake, body weight, OGTT; format: in vivo, mouse
Procedure: To more rigorously assess the role of leptin in the anti-obesogenic effects of sphingolipid-like compound 893, the response of leptin-deficient ob/ob mice to sphingolipid-like compound 893 was measured. As expected, ob/ob mice were hyperphagic and became obese on the standard chow diet provided by University Lab Animal Resources (16% kcal from fat). Ob/ob animals were used in experiments once they attained an equivalent body weight to C57BL/6J mice fed the HFD for 24 weeks (FIG. 36).
Mice were fasted for 6 h prior to blood glucose testing at ZT10. When sphingolipid-like compound 893 treatment was combined with an OGTT, mice were treated at ZT6. Once baseline fasting blood glucose was determined using a handheld blood glucose meter (Prodigy Diabetes Care, Charlotte, N.C.) and a drop of blood collected from a tail vein nick, mice were gavaged with an oral glucose solution (20% w/v in water, 2 g/kg bodyweight) and blood glucose measured in a drop of tail vein blood at 0, 15, 30, 60 and 120 min. The area under the curve was determined using Graphpad Prism software.
Mice were singly housed and allowed to acclimate for 72 h before food intake was monitored. Food consumption was determined by monitoring the weight of food in the hopper. Initial food and body weight measurements were taken at ZT9 and final measurements were taken 16 h later to capture the active period where most consumption occurred. Home cage feeding studies were performed with C57BL/6J mice maintained on a HFD for 24 weeks (33 weeks of age), or ob/ob mice at 8 weeks of age. Mice received vehicle or 120 mg/kg sphingolipid-like compound 893 by gavage at ZT8.5. For experiments involving leptin, 18 week old, SD fed (16% kcal from fat, 2020×, Envigo) C57BL/6J mice received vehicle or 120 mg/kg sphingolipid-like compound 893 by gavage at ZT8.5. At ZT11.5, vehicle (20 mM Tris-Cl, pH 8.0) or 2 mg/kg recombinant mouse leptin (498-OB, R&D Systems, Minneapolis, Minn.) was delivered by intraperitoneal injection. The same 8 mice were used for all treatments following a 48 h washout period, and treatments were administered in the following order: vehicle, sphingolipid-like compound 893, leptin, and leptin+sphingolipid-like compound 893. All data collected from one mouse was excluded due to inadvertent pharyngeal administration during gavage reducing the n from 8 to 7 (FIG. 5a-d). […] One ob/ob mouse died during Echo MRI for unknown reasons after 6 d of treatment with sphingolipid-like compound 893; data from this mouse was analyzed prior to death.

[3] = cited from earlier work
[4] = mice on SD or HFD 10-12 weeks, 120 mg/kg p.o. at ZT8.5
[5] = 120 mg/kg by oral gavage, prior studies

CCCCCCCCc1ccc([C@H]2CCN[C@@H]2CO)cc1.Cl [compound 893]
Protection from palmitate-induced mitochondrial fragmentation (aspect ratio, branch length, roundness) [1]: robust protection from both ceramide- and palmitate-induced mitochondrial fragmentation; also recorded: preserved a tubular, branched mitochondrial network in palmitate-treated cells | Food intake and RER, morning dosing ([2]; 120 mg/kg at ZT2, mice on standard diet): still decreased both food intake and RER | Activity (XY beam breaks) ([2]; 120 mg/kg p.o. at ZT8.5): trend towards reduced activity | Energy expenditure (Weir formula) ([2]; 120 mg/kg p.o. at ZT8.5): not significantly affected | Time after treatment at which RER returned to control values ([2]; 120 mg/kg p.o. at ZT8.5): 24 h | Food intake and body weight loss, HFD for 22 weeks ([2]; mice on HFD 22 weeks, 120 mg/kg once at ZT8.5): the suppression of food intake and body weight loss appeared to increase | Food intake in metabolic caging [2, 4]: reduced food intake | Respiratory exchange ratio (RER) [2, 4]: reduced the RER in both HFD- and SD-fed mice | Cumulative food intake, repeated dosing (ob/ob mice; 120 mg/kg Mon/Wed/Fri for 2 weeks): only a modest decrease in cumulative food intake | Fasting hyperglycemia and glucose tolerance (ob/ob mice; 120 mg/kg Mon/Wed/Fri, OGTT at 14 d): failed to correct fasting hyperglycemia or restore glucose tolerance | Food intake after a single dose (ob/ob mice; single oral dose 120 mg/kg): decreased food intake | Body weight gain (ob/ob mice; six doses of 120 mg/kg over 2 weeks): 5% | Amino acid-dependent mTORC1 signaling [3, 5]: reduces amino acid-dependent mTORC1 signaling | Toxicity (blood chemistry, complete blood count, liver and small intestine histology) [3, 5]: without toxicity | Tumor growth [3, 5]: inhibits tumor growth | Hepatotoxicity ([3]; chronic treatment with the high dose, otherwise healthy tumor-bearing mice): not hepatotoxic
